The values below come from patent US6200962A, “Thionophosphate derivatives, process for their preparation and pharmaceutical compositions containing them” (priority 1994, dated 2001).

The conditions of data set [1]: literature; cited from earlier work.
In data set [2] the test system is Human skin fibroblasts. The data set is described as follows: Chromium release from fibroblasts, killing by streptolysin S and glucose oxidase. The class given is cell-based. How it is done:
Human skin fibroblasts were kindly supplied by the Department for Human Genetics at Hadassa Hospital in Jerusalem. The cells were grown in D-MEM medium supplemented with glutamine, penicillin, and streptomycin and 10% fetal calf serum [Ginsburg, I. et al. (1992) Inflammation 16:519-538]. Radiolabeled cell monolayers were prepared by the addition of 10 μCi/ml of [^51 Cr]NaCrO4 (New England Nuclear) to […] of trypsinized cells grown in 75-ml tissue culture bottles. The cells were then dispensed into 24-well tissue culture plates (Nunc, Roskilde, Denmark) and grown to confluency in a CO2 incubator.
Hydrogen peroxide flux was generated by the addition of glucose oxidase (0.5 units/ml) to the tissue culture media. Streptolysin S (SLS) of Croup A Streptococci (17 hemolytic units/ml) was employed as a membrane damaging agent.
Culture monolayers were treated for 1 h with the agents listed above. The cultures were monitored periodically for changes in cell morphology. To assess cytotoxicity, the supernatant fluids were removed and centrifuged at 2000 rpm for 2 min. The solubilized radioactivity was then determined in a Contron gamma counter. The total radioactivity associated with untreated controls was solubilized by the addition of 1 ml of 1% Triton X-100. (AMTPs influence on SLS hemolytic activity and on glucose oxidase activity was also tested. No influences were observed).
Fibroblasts in culture were exposed to a synergistic killing mechanism (streptolysin S in combination with an oxidant glucose oxidase) in a D-MEM culture medium that contained 1 mg/ml of glucose (about 0.5-1 mM of H2 O2 was produced after 1 hour of incubation at 37° C.). This system caused about 60% chromium released within an hour. […] The positive controls were DMTU and catalase.

Data set [3] relates to BSA. The data set is described as follows: BSA oxidation by NaOCl, fluorescence (tryptophan). The settings on record: NaOCl 1 mM. As to the method: BSA (0.5 mg/ml) in a 1 ml HEPES Buffer pH=7.2(50 mM) was incubated for 15 min with 1 mM sodium hypochlorite. Various concentrations of AMTP (compound B) were added to protect the protein. The sample was diluted in 3 ml of HEPES buffer and fluorescence was measured (lex =280 nm, lem =345 nm) in a JASCO FP-770 spectrotluorometer. Fluorescence decav was due to tryptophan and tyrosine oxidation. Alternatively, BAS (0.5 mg/ml) in HEPES buffer (1 ml) was incubated with 2,2'-azobis-(2-amidinopropane)-HCL (AAPH) (a water soluble peroxy radical initiator) (50 mM) at 37° C. for a period of 4 h. The sample was diluted with 2 ml of the buffer and fluorescence was measured [Hazell, L. and Stocker, R. (1993) Biochem. J. 290:165-172].
(§1) BSA's tryptophan oxidation and BSA's cystine oxidation were the models for protein damage by NaOCl (FIG. 11 and FIG. 12 respectively). BSA fluorescence intensity decreased following oxidative stress of NaOCI (1 mM). […] Out of the three AMTP compounds the most lipophilic (A) was best in preventing the damage and provided 94% protection on the protein.

The subject of data set [4] is BSA. The experiment in a line: BSA's cystine oxidation by NaOCl (DTNB). The settings on record: NaOCl 1 mM. As to the method:
BSA (0.5 mg/ml) in Imi HEPES buffer pH=7.2(50 mM) was incubated with sodium hypochlorite (1 mM) for 15 min. The protein was dialyzed for 2 h against 2×500 vol of HEPES buffer to remove free sodium hypochlorite. 301 DTNB 0.015 M in water was then added to the protein solution and color was measured at 420 nm. AMTPs were added to the protein sample to protect it against sodium hypochlorite [Hazell and Stocker, ibid.].
as §1

Data set [5] can be described thus: Solubility in D-MEM medium. The class given is physicochemical. The settings on record: not soluble above this concentration.
The nature of data set [6]: oil(mineral)/water and octanol/water partitioning. In kind it is physicochemical. The settings on record: for logP: octanol/water, read-out: P (octanol/water) (converted); for P (oil/water): oil(mineral)/water. The text has this: The basic chemical structure of the compounds of the invention includes the group --P--N=S, which resembles the thiourea --N--C=S core, in which the central carbon atom has been replaced by a phosphorus atom, to give --N--P=S, which is the characteristic functional group the novel compounds of the invention. This functional group is based on a primary amido thionophosphate (AMTP) chemical bond. The specific compounds shown in FIG. 1, which are only representative of the numerous possible compounds, differ in their oil(mineral) /water and octanol/water partitioning: […]

A short description of data set [7]: Lipid hydroperoxides in partially oxidized SUV liposomes. The following applies: 5 mM. As to the method: SUV liposomes were prepared from egg lecitin at 10% lipid concentration in a 50 ml HEPES buffer pH=6.9 according to already published procedures [Lichtenberg, D. and Barenholz. Y. (1988) Methods of Biochemical Analysis 33:337-462].
Lipid hydroperoxides were monitored by a modified micromolar sensitive spectroscopic method [Siddiqi, A. M. and Tappel, A. L. (1955) Chemist Analyst 44:52]. 50λ of lipids (liposomes or emulsion) were dissolved in 1 ml ethanol. 50λ of 50% potassium iodide solution were then added and the mixture was incubated for half an hour in the dark. The developed color was read in a spectrophotometer at 400 nm.
SUV Liposomes (12.5 mM) with certain degrees of oxidation were incubated with 5 mM AMTP molecules for period of 24 h. Peroxidation number (PN) was measured with potassium iodide in ethanol. AMTPs were able to decompose lipid hvdroperoxide and to reduce the peroxidation number (PN).

Data set [8] can be described thus: Hydroxyl radical deoxyribose assay. As to the method:
A modification of the assay described by Halliwell et al. [Halliwell, B. et al. (1987) Analyt. Biochem. 165:215-219] was developed. 2-Deoxyribose was purchased form Sigma Chemical Co. All other chemicals for the assay were purchased from BDH Chemicals Ltd. Degradation of deoxy ribose was achieved bv a mixture of Fe^2+, EDTA, ascorbic acid and H2 O2. […] The reaction mixture was incubated for 1 h at 37° C. Scavenging of hydroxyl radical was done by various concentrations of AMTP (compound C), and color was developed by reaction with thiobarbituric acid as described [Halliwell, B. et al., ibid.]
A^-1 =A0^-1 {1+K[S]×(KDR [DR])^-1 } Equation 1
where A is the absorbance in the presence of a scavenger S (AMTPs) at a concentration [S] and A0 is the absorbance in the absence of a scavenger KDR =3.1*10^9 (reaction constant between deoxyribose and OH. radical) [Ebert, M., et al. (1965) Pulse Radiolysis, Academic Press, London] and [DR]=18 mM. […] Considering the fast reaction between H2 O2 and Fe^2+ --NTA and the slow reaction rate between AMTP and hydrogen peroxide as monitored in the ^31 P experiments (FIG. 5), the light decay may be exclusively attributed to hydroxyl radical scavenging.

Data set [9] in a line: Pro-oxidative effect: oxygen consumption with copper. The following applies: for oxygen consumption: 10 mM, Cu2+ 10 mM, pH 7.2, 37 °C; for Rate of oxygen consumption: Table 1, 10 mM with Cu2+ 10 mM. How it is done:
Oxygen consumption from solutions that contained AMTPs or other antioxidants such as cystine or ascorbic acid at 10 mM each, and copper sulfate 10 mM, was monitored by Biological Oxygen Monitor, model YSI 53.
AMTP molecules (10 mM) were incubated at pH=7.2 37° C. with Cu^2+ (10 mM). Oxygen consumption from the solution was measured with a Clark electrode (biological oxygen monitor). No oxygen consumption was observed from the solution. […] The oxygen consumption rate is referred to free radical production rate.

Structures are written as SMILES.

`CNC(=S)NC` [DMTU, N,N'-dimethyl thiourea]: the toxicity entry in [1] is reported as “considered a toxic compound”.

In the case of `CCCCNP(=S)(OCC)OCC` [Compound A, n-butylamido diethylthioiiophosphate], the inhibition at 2000 µM in [2] (Homo sapiens, Skin fibroblast, 1 h, 2 mM, read-out: protection against cell killing) turned out to be 10%. Further, the “protection of BSA fluorescence” value in [3] was 94%. Further, the “protection of BSA's cystines” value in [4] is listed as “strong protection”. Further, the solubility in data set [5] was not above 2000 µM. For the same molecule, in [6], the logP was 0.788 and the “P (oil/water)” value was 4.82. Besides, the “reduction of PN, comparative” value in data set [7] (after 24 h) is reported as “more effective in reducing PN”.

Take `CCOP(=S)(NCCC(=O)O)OCC` [Compound C, 2-carboxyamidodiethyl thionophosphate]: the “toxic effects on the cell” value in data set [2] (concentrations of up to 20 mM, compound alone) was “did not show any toxic effects”. In data set [2] (concentrations up to 10 mM, 60 min), the “protection against cell killing” value is 50-60%. Also, in data set [6], the logP is -0.357 and the “P (oil/water)” value was 0.39. Moreover, the “reaction rate constant with hydroxyl radicals” value in [8] (calculated from equation 1, 18 mM deoxyribose) is 1.5×10^9 M^-1 S^-1. Further, the hydroxyl radical scavenging result in data set [8] (deoxyribose degradation) is on record as “potent hydroxyl radical scavengers”. In data set [7] (first few hours of incubation), the “reduction of PN, comparative” value is listed as “more efficient in the first few hours”.

As to `O=C1O[C@H]([C@@H](O)CO)C(O)=C1O` [Ascorbic acid], in data set [9], the oxygen consumption result is reported as “significant oxygen consumption” and the “Rate of oxygen consumption” value is 2.87e-05 M/min.

In the case of `NC(=S)Nc1cccc2ccccc12` [α-naphthyl-thiourea], the LD50 result in data set [1] is “about 10 mg/kg”.

In the case of `N[C@@H](CSSC[C@H](N)C(=O)O)C(=O)O` [cystine], in data set [9], the oxygen consumption entry is “significant oxygen consumption” and the “Rate of oxygen consumption” value was determined as 2.35e-06 M/min.

By solubility is commonly meant the dissolved amount per volume that the medium holds. Lower therefore signals a poorly soluble substance.
